In patent publication US20230106506A1, “NOVEL PqsR INVERSE AGONISTS” (Helmholtz-Zentrum Fur Infektionsforschung GmbH, priority 2020, published 2023):

How the values were obtained:
[1] = system: P. aeruginosa pyocyanin production; assay: Pyocyanin assay; format: cell-based, P. aeruginosa strain PA14; conditions: Pseudomonas aeruginosa, PA14, 16 h, read-out: IC50-value towards pyocyanin production
Procedure, shortened: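 PA14 washed overnight culture in PPGAS diluted to OD600 0.02, grown 16 h with compound (37 °C, 200 rpm, 75% RH). Pyocyanin extracted with chloroform, back-extracted into 0.2 M HCl. OD520 measured and normalised to OD600.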

[2] = target: T1, PqsR (Pseudomonas aeruginosa, UniProt Q9I4X0); assay: PqsR reporter gene assay in E. coli (β-galactosidase); format: cell-based
T1 construct: transfected with pEAL08-2 plasmid encoding pqsR under control of promoter tac; expressed in transfected cells; host or cells: Escherichia coli DH5alpha carrying pEAL08-2
Experimental: Inhibition of pqsR-dependent gene expression of test compounds was determined in an E. coli based β-galactosidase reporter gene assay. Escherichia coli DH5α was transfected with pEAL08-2 plasmid encoding pqsR under control of promoter tac and β-galactosidase reporter gene lacZ under control of promoter pqsA. Antagonistic effects of compounds were evaluated in the presence of/in competition to 50 nM PQS. A positive control was used to ensure the reliability of individual assays. First, PQS was diluted in methanol and added to the wells of a glass coated 96-deep-well plate, and the solvent was evaporated. Then, compounds were added in 5 μL DMSO to final concentrations of 0.001-10 μM. Overnight cultures of E. coli DH5a×pEAL08-2 were diluted 1:100 in LB medium with ampicillin (50 μg/ml) and incubated at 37° C. with shaking until it reached an OD600 of 0.2. Finally, 995 μL of culture was added to each well and the β-galactosidase activity was determined by ortho-nitrophenyl-β-galactoside conversion in permeabilized cells after a 2.5 h incubation period (37° C., 180 rpm). OD600, OD420, and OD550 were measured using POLARstar Omega (BMG Labtech, Ortenberg, Germany), and the activity was expressed as ratio of the slope of β-galactosidase activity between basal control (no PQS) and solvent control, IC50 values of antagonists were determined by variation of the concentration of the test compounds.

[3] = Kinetic turbidimetric aqueous solubility; format: physicochemical; conditions: aqueous buffer, kinetic from dmso stock; PBS buffer, final DMSO 2%, absorbance 620 nm; read-out: Kinetic Turbidimetric Aqueous Solubility at room temperature for 5 min
Experimental: Kinetic Turbidimetric Aqueous Solubility at room temperature for 5 min. […] Data was analyzed by fitting a four parameter sigmoidal function to the measured and normalized absorbances and AUC calculation providing access to Log S (decadic logarithm of the solubility).

[4] = Metabolic stability in mouse liver microsomes (MLM); format: in vitro ADME; conditions: 1 μM compound, 0.5 mg/mL MLM, 1 mM NADPH, 37° C., read-out: half-life (t1/2) towards MLM
Procedure, shortened: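 Phase I stability: 1 μM compound incubated at 37° C with 0.5 mg/mL mouse liver microsomes and 1 mM NADPH, sampled at 0-30 min and quenched in acetonitrile. Remaining parent measured by HPLC-MS/MS to derive half-life.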

T1 sequence (Q9I4X0 whole entry): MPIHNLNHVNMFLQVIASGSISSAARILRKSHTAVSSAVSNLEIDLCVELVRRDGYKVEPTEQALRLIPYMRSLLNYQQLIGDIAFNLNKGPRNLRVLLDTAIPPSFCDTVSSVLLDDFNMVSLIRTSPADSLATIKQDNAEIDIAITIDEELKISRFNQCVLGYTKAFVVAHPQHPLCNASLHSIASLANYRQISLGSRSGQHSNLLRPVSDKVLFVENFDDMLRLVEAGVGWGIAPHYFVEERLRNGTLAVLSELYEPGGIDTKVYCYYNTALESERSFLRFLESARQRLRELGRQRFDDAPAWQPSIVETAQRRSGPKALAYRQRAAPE

SMILES	IC50 [1]	IC50 [2]	solubility at 5 min [3]	half-life at 1 µM [4]
FC(F)(F)c1cc(NCc2cn(-c3ccc(Oc4ccccc4)cc3)nn2)cc(-c2cn[nH]c2)n1 [Compound 01]	101 to 200 nM	51 to 250 nM	> 25 µM	
FC(F)(F)c1cc(NCc2cn(-c3ccc(Oc4ccccc4)cc3)nn2)cc(-n2ccnc2)n1 [Compound 02, 2-(1H-Imidazol-1-yl)-N-((1-(4-phenoxyphenyl)-1H-1,2,3-triazol-4-yl)methyl)-6-(trifluoromethyl)pyridin-4-amine]	201 to 500 nM	≤ 50 nM	> 25 µM	
FC(F)(F)c1cc(NCc2cn(-c3ccc(Oc4ccccc4)cc3)nn2)cc(-n2cncn2)n1 [Compound 03, N-((1-(4-Phenoxyphenyl)-1H-1,2,3-triazol-4-yl)methyl)-2-(1H-1,2,4-triazol-1-yl)-6-(trifluoromethyl)pyridin-4-amine]	201 to 500 nM	≤ 50 nM	> 25 µM	1.02 to 1.67 h
Fc1ccccc1Oc1ccc(-n2cc(CNc3cc(-c4cn[nH]c4)nc(C(F)(F)F)c3)nn2)cc1 [Compound 04, N-((1-(4-(2-Fluorophenoxy)phenyl)-1H-1,2,3-triazol-4-yl)methyl)-2-(1H-pyrazol-4-yl)-6-(trifluoromethyl)pyridin-4-amine]	101 to 200 nM	≤ 50 nM	> 10 µM	0.5 to 1 h
CC(C)Oc1ccc(-n2cc(CNc3cc(Cl)nc(-c4cn[nH]c4)c3)nn2)cc1Cl [Compound 08, 2-Chloro-N-((1-(3-chloro-4-isopropoxyphenyl)-1H-1,2,3-triazol-4-yl)methyl)-6-(1H-pyrazol-4-yl)pyridin-4-amine]	201 to 500 nM	≤ 50 nM	> 25 µM	
CC(C)Oc1ccc(-n2cc(CNc3cc(C#N)nc(-c4cn[nH]c4)c3)nn2)cc1Cl [Compound 09, 4-(((1-(3-Chloro-4-isopropoxyphenyl)-1H-1,2,3-triazol-4-yl)methyl)amino)-6-(1H-pyrazol-4-yl)picolinonitrile]	201 to 500 nM	≤ 50 nM	> 10 µM	
CC(C)Oc1ccc(-c2ncc(CNc3cc(-n4ccnc4)nc(C(F)(F)F)c3)s2)cc1Cl [Compound 16, N-((2-(3-Chloro-4-isopropoxyphenyl)thiazol-5-yl)methyl)-2-(1H-imidazol-1-yl)-6-(trifluoromethyl)pyridin-4-amine]	101 to 200 nM	51 to 250 nM		> 1.67 h
CC(C)Oc1ccc(-c2ncc(CNc3cc(-n4cncn4)nc(C(F)(F)F)c3)s2)cc1Cl [Compound 18, N-((2-(3-Chloro-4-isopropoxyphenyl)thiazol-5-yl)methyl)-2-(7H-1,2,4-triazol-1-yl)-6-(trifluoromethyl)pyridin-4-amine]	≤ 100 nM	≤ 50 nM		> 1.67 h
Cn1cc(-c2cc(SCc3nc4cc(Oc5ccccc5)ccc4[nH]3)cc(C(F)(F)F)n2)cn1 [Compound 65, 2-(((2-(1-Methyl-1H-pyrazol-4-yl)-6-(trifluoromethyl)pyridin-4-yl)thio)methyl)-5-phenoxy-1H-benzo[d]imidazole]		51 to 250 nM	> 10 µM	
FC(F)(F)c1cc(SCc2nc3cc(Oc4ccccc4)ccc3[nH]2)cc(-n2cncn2)n1 [Compound 66, 2-(((2-(1H-1,2,4-Triazol-1-yl)-6-(trifluoromethyl)pyridin-4-yl)thio)methy)-5-phenoxy-1H-benzo[d]imidazole]	101 to 200 nM	≤ 50 nM	> 10 µM	
CC(C)Oc1ccc(-n2cc(CNc3cc(-c4cccnc4)nc(C(F)(F)F)c3)nn2)cc1Cl [Compound 67, N-((1-(3-Chloro-4-isopropoxyphenyl)-1H-1,2,3-triazol-4-yl)methyl)-6-(trifluoromethyl)-[2,3′-bipyridin]-4-amine]		51 to 250 nM		
